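Exposure lasted 48 hours, with cells grown in 96-well plates and compounds tested at five concentrations. GI50 = concentration required for 50% inhibition of growth.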 Active and inactive are the calls of the source. Rule as the data show it: active = GI50 up to about 1.1 µM and inactive = higher.
How the values were obtained:
Assay in all cases: inhibition of tumour cell growth, NCI panel, 48 h
[1] = tested on: UACC-62
[2] = tested on: UACC-257
[3] = tested on: IGROV-1
[4] = tested on: OVCAR-4
[5] = tested on: OVCAR-3
[6] = tested on: HCT-15
[7] = tested on: OVCAR-8
[8] = tested on: 786-0
[9] = tested on: EKVX
[10] = tested on: OVCAR-5
[11] = tested on: MDA-MB-231
[12] = tested on: Hs-578T
[13] = tested on: CAKI-1
[14] = tested on: SK-OV-3
[15] = tested on: MCF7
[16] = tested on: KM12
[17] = tested on: HCT-116
[18] = tested on: HOP-62
[19] = tested on: SK-MEL-28
[20] = tested on: HOP-92

Compound | GI50 [1] | GI50 [2] | GI50 [3] | GI50 [4] | GI50 [5] | GI50 [6] [µM] | GI50 [7] | GI50 [8] | GI50 [9] | GI50 [10] | GI50 [11] | GI50 [12] | GI50 [13] | GI50 [14] | GI50 [15] | GI50 [16] | GI50 [17] | GI50 [18] | GI50 [19] | GI50 [20]
Cc1cc2nn(C3CCCCO3)nc2cc1C (stereo unspecified) | > 100 µM (inactive) | > 100 µM (inactive) | > 100 µM (inactive) | > 100 µM (inactive) | > 100 µM (inactive) | > 100 | > 100 µM (inactive) | > 100 µM (inactive) | > 100 µM (inactive) | > 100 µM (inactive) | > 100 µM (inactive) | > 100 µM (inactive) | > 100 µM (inactive) | > 100 µM (inactive) | > 100 µM (inactive) | > 100 µM (inactive) | > 100 µM (inactive) | > 100 µM (inactive) | – | –
Cc1cccc(C)c1NC(=O)/C(Cl)=C(/Cl)C(=O)O | 13.7 µM (inactive) | 16.1 µM (inactive) | 20.8 µM (inactive) | 18.5 µM (inactive) | 20.9 µM (inactive) | 16.2 | 20.2 µM (inactive) | 17.1 µM (inactive) | 19.5 µM (inactive) | 20.4 µM (inactive) | 21.3 µM (inactive) | 33.3 µM (inactive) | 7.66 µM (inactive) | 21.8 µM (inactive) | 20.8 µM (inactive) | 15.3 µM (inactive) | 21.1 µM (inactive) | > 62.2 µM (inactive) | 18.3 µM (inactive) | 15.5 µM (inactive)
O=C(O)CCc1nc2c(n1Cc1ccccc1)C(=O)c1ccccc1C2=O | 38 µM (inactive) | 33.7 µM (inactive) | 70.3 µM (inactive) | > 100 µM (inactive) | 27.9 µM (inactive) | 48.8 | 49.4 µM (inactive) | > 100 µM (inactive) | 78.2 µM (inactive) | > 100 µM (inactive) | 33.5 µM (inactive) | 66.5 µM (inactive) | > 100 µM (inactive) | 69.3 µM (inactive) | 43.8 µM (inactive) | 52.4 µM (inactive) | 36.3 µM (inactive) | > 100 µM (inactive) | > 100 µM (inactive) | 5.45 µM (inactive)
Clc1c2ncccc2cc2nn[nH]c12 | > 100 µM (inactive) | > 100 µM (inactive) | 33 µM (inactive) | > 100 µM (inactive) | > 100 µM (inactive) | > 100 | > 100 µM (inactive) | > 100 µM (inactive) | > 100 µM (inactive) | 74.5 µM (inactive) | > 100 µM (inactive) | 93.8 µM (inactive) | > 100 µM (inactive) | > 100 µM (inactive) | > 100 µM (inactive) | > 100 µM (inactive) | > 100 µM (inactive) | > 100 µM (inactive) | > 100 µM (inactive) | 54 µM (inactive)
O=C(O)C1CSC2(CCCN(Cc3ccccc3)C2)N1 (stereo unspecified) | > 100 µM (inactive) | > 100 µM (inactive) | > 100 µM (inactive) | > 100 µM (inactive) | > 100 µM (inactive) | > 100 | > 100 µM (inactive) | > 100 µM (inactive) | > 100 µM (inactive) | > 100 µM (inactive) | > 100 µM (inactive) | > 100 µM (inactive) | > 100 µM (inactive) | > 100 µM (inactive) | > 100 µM (inactive) | > 100 µM (inactive) | > 100 µM (inactive) | > 100 µM (inactive) | > 100 µM (inactive) | > 100 µM (inactive)
COC(=O)c1ccc(/C=C/c2cc(O)ccc2O)cc1 | 2.87 µM (inactive) | 6.27 µM (inactive) | 2.62 µM (inactive) | 4.5 µM (inactive) | 1.18 µM (inactive) | 3.01 | 2.67 µM (inactive) | 3.05 µM (inactive) | 2.37 µM (inactive) | 5.07 µM (inactive) | 2.74 µM (inactive) | 4.95 µM (inactive) | 2.43 µM (inactive) | – | 5.14 µM (inactive) | 3.81 µM (inactive) | 5.75 µM (inactive) | 27.2 µM (inactive) | 13.9 µM (inactive) | 2.44 µM (inactive)
O=C(O)Cc1cccc2c(=O)cc(-c3ccccc3)oc12 [MITOFLAXONE] | > 250 µM (inactive) | > 250 µM (inactive) | > 250 µM (inactive) | 185 µM (inactive) | 235 µM (inactive) | 220 | > 175 µM (inactive) | 71.4 µM (inactive) | 242 µM (inactive) | 242 µM (inactive) | > 250 µM (inactive) | 149 µM (inactive) | 142 µM (inactive) | 242 µM (inactive) | 236 µM (inactive) | 240 µM (inactive) | 206 µM (inactive) | 243 µM (inactive) | > 250 µM (inactive) | –
